Experimental data taken from paper PMC5858991 (Neuropharmacology, 2018).
Where “and” joins values, the source holds several entries; their conditions need not be identical. Equal entries are not always repeated. Where two headings read alike, the source gives them in different places.

Columns and labels:
[1] = biological target: σ1R homomer (Homo sapiens, UniProt Q99720); experiment: Drug induced σ1R homomer BRET; assay type: cell-based; details: for effect on σ1R homomer BRET signaling: 2.5-60 min
Chain of σ1R homomer (Q99720 whole entry): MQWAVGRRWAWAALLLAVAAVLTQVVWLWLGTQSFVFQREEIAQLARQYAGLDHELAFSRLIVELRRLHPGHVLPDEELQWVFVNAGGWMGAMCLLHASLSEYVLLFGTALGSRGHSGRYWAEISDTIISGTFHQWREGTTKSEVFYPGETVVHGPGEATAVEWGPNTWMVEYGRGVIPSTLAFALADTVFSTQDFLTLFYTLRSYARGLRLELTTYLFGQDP
Chain of σ1R homomer (Q99720 whole entry): as above

[2] = biological target: T1, σ1R (Homo sapiens, UniProt Q99720); assay type: binding; details: read-out: Ki ± SEM; competition vs. 2 nM [3H]-haloperidol, HEK 293T membrane
T1 sequence (Q99720 whole entry): as above

[3] = biological target: T1, σ1R; assay type: binding; details: HEK 293T membrane; for Ki: read-out: Ki ± SEM, competition vs. 3 nM [3H]-(+)-pentazocine
[4] = biological target: σ1R (Cavia porcellus, UniProt Q60492); experiment: σ1R radioligand binding in guinea pig cortex with [3H]-
Chain of σ1R (Cavia porcellus, UniProt Q60492) (Q60492 whole entry): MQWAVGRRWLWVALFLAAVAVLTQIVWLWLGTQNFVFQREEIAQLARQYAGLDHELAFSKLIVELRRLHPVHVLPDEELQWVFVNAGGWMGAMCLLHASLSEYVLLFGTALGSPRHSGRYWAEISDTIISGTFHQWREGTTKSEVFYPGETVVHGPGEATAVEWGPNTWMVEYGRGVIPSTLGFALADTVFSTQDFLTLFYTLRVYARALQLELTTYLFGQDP

[5] = Experimentally determined pKa
[6] = biological target: T1, σ1R; assay type: binding; details: for displacement kinetics of [3H]-(+)-pentazocine: membrane preparation and whole cells, 15 min of incubation
[7] = single-ligand mode, σ1-NL:σ1-VN
[8] = read-out: Ki ± SEM, competition vs. 3 nM [3H]-(+)-pentazocine, guinea pig cortex
[9] = 1 μM haloperidol or 1 μM PD144418 added prior to tested ligand

In the case of CCCN1CCC=C(c2cc(-c3ccc(C)cc3)no2)C1 [PD144418], the “Emax (basal subtracted BRET change)” value [1, 7] is reported as ~0.02, the “effect on σ1R homomer BRET signaling” value [1, 7] is reported as “positive dose-dependent induction of BRET signaling” and the Ki [2] is reported as 2.67 ± 0.578 nM. It also gave a Ki [3] of 0.894 ± 0.11 nM and a Ki [4, 8] of 0.842 ± 0.307 nM.

For c1ccc(CCCCN2CCC(c3ccccc3)CC2)cc1 [4-PPBP], the “effect on σ1R homomer BRET in competition mode” value (shortened to “effect … in competition mode”) ([1]; in the presence of 1 μM PD144418) was “positive BRET signals were induced”, the “effect on σ1R homomer BRET signaling” value [1, 7] was “positive dose-dependent induction of BRET signaling” and the Ki [4, 8] was 0.857 ± 0.153 nM.

In the case of O=C(OCCN1CCOCC1)C1(c2ccccc2)CCCCC1 [PRE-084, 2-(4-morpholinethyl)1 phenylcyclohexanecarboxylate], the “effect … in competition mode” value [1, 9] is reported as “dose-dependent effects”, the “effect on σ1R homomer BRET signaling” value [1, 7] is reported as “no detectable effects on BRET signaling” and the “experimentally determined pKa” value [5] is reported as 6.2. The “displacement of [3H]-(+)-pentazocine” value ([6]; membrane preparation, 15 and 120 min) was 92.4–96.1%, the “displacement of [3H]-(+)-pentazocine” value ([6]; whole cell assay, 15 min) was 60.6% and the “displacement of [3H]-(+)-pentazocine” value ([6]; whole cell assay, 120 min) was “below 76.1%”.

For CC(C)=CCN1CC[C@]2(C)c3cc(O)ccc3C[C@H]1[C@H]2C [[^3H]-(+)-pentazocine], the “Bmax ± SEM” value ([3]; [3H]-(+)-pentazocine) was 2080 fmol/mg and 2080 ± 163 fmol/mg.

For CCCN(CCC)CCc1ccc(OC)c(OCCc2ccccc2)c1 [NE-100], the “effect … in competition mode” value [1, 9] was “dose-dependent effects”, the “effect on σ1R homomer BRET signaling” value [1, 7] was “no detectable effects on BRET signaling” and the Ki [4, 8] was 1.14 ± 0.283 nM. For the same molecule, the “displacement kinetics of [3H]-(+)-pentazocine” value [6] was “immediate displacement”.

In the case of CCCCN1[C@@H]2CC[C@H]1CC(OC(c1ccc(F)cc1)c1ccc(F)cc1)C2 (some centres unmarked) [JHW007], the “effect … in competition mode” value [1, 9] is reported as “dose-dependent effects”, the “effect on σ1R homomer BRET signaling” value [1, 7] is reported as “no detectable effects on BRET signaling” and the Ki [2] is reported as 1.85 ± 0.0579 nM. For the same molecule, the Ki [3] was 0.554 ± 0.172 nM, the Ki [4, 8] was 1.48 ± 0.289 nM and the “displacement kinetics of [3H]-(+)-pentazocine” value [6] was “immediate displacement”.

CC(C)=CCN1CC[C@]2(C)c3cc(O)ccc3C[C@H]1[C@H]2C [(+)-pentazocine] gave a pKa [5] of 9.2 to 9.3.

For COC(=O)[C@H]1[C@@H](OC(=O)c2ccccc2)C[C@@H]2CC[C@H]1N2C [cocaine], the “effect … in competition mode” value [1, 9] was “dose-dependent effects”, the “effect on σ1R homomer BRET signaling” value [1, 7] was “no detectable effects on BRET signaling” and the Ki [4] was 3710 ± 1170 nM.
